Test results from patent US10143747B2, “Breast cancer therapeutics” (IMBA—INSTITUT FÜR MOLEKULARE BIOTECHNOLOGIE GMBH, priority 2010, dated 2018).

B1: RANKL: recombinant RANKL protein, ligand of RANK, used as stimulus (1 μg/ml or 1 μg i.p.) (protein, UniProt O35235 139-316, looked up)
Tumor necrosis factor ligand …: FSGAPAMMEGSWLDVAQRGKPEAQPFAHLTINAASIPSGSHKVTLSSWYHDRGWAKISNMTLSNGKLRVNQDGFYYLYANICFRHHETSGSVPTDYLQLMVYVVKTSIKIPSSHNLMKGGSTKNWSGNSEFHFYSINVGGFFKLRAGEEISIQVSNPSLLDPDQDATYFGAFKVQDID

Experiments:
mammary epithelial cells = experiment: Epithelial proliferation in mammary glands by in situ Ki67 immunostaining; assay type: in vivo, mouse
Protocol: (§1) a,b, Induction of RANKL expression by the progesterone-derivative MPA. Nulliparous wild type females were s.c. implanted with slow-release MPA pellets or treated with surgery sham. a, RANKL mRNA was determined in purified mammary epithelial cells by qRT-PCR three days after implantation. Data are shown as fold change compared to sham treatment (+/−sem) (n=3). b, In situ […] immunostaining of progesterone receptor (PR, red) and RANKL (green) in mammary epithelial cells after 3d MPA treatment. c, Induction of soluble RANKL protein assayed on isolated mammary gland epithelial cells from control, but not in prolactin receptor mutant (PRL-R KO) females on day 3 after s.c. MPA implantation. Mammary glands from sham operated control litter-mates and PRL-R KO females are shown as controls. d, Epithelial proliferation in mammary glands of control littermates and RANK^Δmam females 3 days after sham treatment and MPA implantation. Proliferation was determined by in situ Ki67 immunostaining. e,f, Marked increase of the stem cell-enriched CD24^+CD49^high population (MaSC) in MPA-treated mammary glands in control but not in RANK^Δmam mammary glands. e, Representative FACS profiles showing CD24 and CD49 expression of lineage negative (CD31^− (endothelial cells) CD45^− (hematopoietic cells) […] (erythroid cells)) of mammary MaSCs from MPA- or sham-treated 8-week old virgin females. f, Quantification of MaSC-enriched CD24^+CD49^high population from mammary glands of MPA- or sham-treated virgin RANK^Δmam and littermate control females. For all MaSCs experiments mice were treated with MPA for 3 days. n=4 per group+/−sem. *P<0.05; ***P<0.001 (Student's t-test).
At least 1000 mammary gland epithelial cells were counted per mouse. n=3 mice per genotype. **P<0.005; ***P<0.001 (Student's t-test). b, Quantification of in situ Ki67 immunostained cells per acinus from mammary glands of control littermate and RANK^Δmam females on day 3 after MPA s.c. implantation. […] At least 1000 cells were counted per mammary gland. n=3 per genotype. In b, and c, data are shown as percentage of acini/ducts with low (<20% of epithelial cells are Ki67^+), medium (20-80% of epithelial cells are Ki67^+) and high (>80% of epithelial cells are Ki67^+) numbers of proliferating cells+/−sem. ***P<0.001; *P<0.03 (Student's t-test). d, Epithelial proliferation in mammary glands of control littermates and RANK^Δmam females 1 day after i.p. injection of PBS or RANKL (1 μg). Proliferation was determined in situ Ki67 immunostaining. Magnifications×40. e, Quantification of epithelial proliferation 1 day after i.p. injection of PBS or RANKL (1 μg). Mean percentages of Ki67 positive cells+/−sem are shown. *P<0.03; n=5 (Student's t-test).
For histological analysis, 5 μm sections were cut and stained with hematoxylin and eosin (H&E). Whole-mount staining of mammary glands was performed as described^8. For immunoperoxidase staining paraffin-embedded sections were […] and antigenic epitopes exposed using a 10 mM citrate buffer or microwaving. […] Histomorphometric indices (proliferation and apoptosis) were calculated as the number of positive epithelial cells divided by the total number of epithelial cells, with no fewer than 1000 nuclei for Ki67 stainings and no fewer than 5000 cells for active Caspase 3 staining counted per section. […]

Lin-CD24+CD49f^hi cells = experiment: FACS quantification of stem cell-enriched Lin-CD24+CD49f hi mammary population (MaSC); assay type: in vivo, mouse; conditions: MPA for 3 days
Protocol: as §1, with “Mammary glands from sham operated control litter-mates and PRL-R KO females are shown as controls. d, Epithelial proliferation in mammary glands of control littermates and RANK^Δmam females 3 days after sham treatment and MPA implantation.” left out, “For all MaSCs experiments mice were treated with MPA for 3 days. n=4 per group+/−sem. *P<0.05; ***P<0.001 (Student's t-test).” left out

| Molecule | MPA-induced proliferation of mammary epithelial cells (mammary epithelial cells; RANKΔmam females, 3 days after MPA implantation) | acini with very low proliferation rates (Ki67) (mammary epithelial cells; RANKΔmam females, day 3 after MPA s.c. implantation) | acini with medium to high proliferation (Ki67) (mammary epithelial cells; control females, day 3 after MPA s.c. implantation) [%] | proliferation of mammary epithelial cells (mammary epithelial cells; wild type, 3 days after MPA implantation) | expansion of Lin-CD24+CD49f hi cells (Lin-CD24+CD49f^hi cells; RANKΔmam females) | expansion of Lin-CD24+CD49f hi cells (Lin-CD24+CD49f^hi cells; control females) | proliferation of mammary gland epithelial cells (mammary epithelial cells; nulliparous females, 1 day after i.p. injection of RANKL (1 μg)) |
| --- | --- | --- | --- | --- | --- | --- | --- |
| CC(=O)O[C@]1(C(C)=O)CC[C@H]2[C@@H]3C[C@H](C)C4=CC(=O)CC[C@]4(C)[C@H]3CC[C@@]21C [MPA, medroxyprogesterone acetate] | significantly reduced | more than 60% | ~80 | triggers massive proliferation | did not occur | two-fold | – |
| B1 | – | – | – | – | – | – | triggered proliferation of mammary gland epithelial cells via RANK |
